Values joined by “and” are separate entries in the source; they are usually repeats but may differ in a detail not shown here. Equal values may be shown once.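 Following 48 hours of exposure in 96-well plates, responses at five concentrations were used to interpolate endpoints linearly. GI50 is the concentration that inhibits growth by half. TGI: concentration producing complete growth inhibition.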
Columns and labels:
Assay in all cases: inhibition of tumour cell growth, NCI panel, 48 h
[1] = test system: UACC-62 melanoma
[2] = test system: SK-OV-3 ovarian
[3] = test system: HCT-15 colon
[4] = test system: MCF7 breast
[5] = test system: T-47D breast
[6] = test system: RXF 393 renal
[7] = test system: SNB-19 CNS
[8] = test system: OVCAR-4 ovarian
[9] = test system: HL-60(TB) leukemia
[10] = test system: M19-MEL melanoma
[11] = test system: DLD-1 colon

## FC(F)(F)c1ccc(N=NN2CCCC2)cc1
[1]
  TGI: > 100 µM
[2]
  TGI: > 100 µM
[3]
  TGI: > 100 µM
[4]
  TGI: > 100 µM
[5]
  TGI: > 100 µM
[6]
  TGI: > 100 µM
[7]
  TGI: > 100 µM
[8]
  TGI: > 100 µM
[9]
  TGI: > 100 µM

## COC(=O)/C=C/[C@H]1[C@H](C)N1S(=O)(=O)c1ccc(C)cc1 (stereo not given in full)
[1]
  TGI: > 100 µM
[2]
  TGI: > 100 µM
[3]
  TGI: > 100 µM
[4]
  TGI: > 100 µM
[5]
  TGI: > 100 µM
[6]
  TGI: > 100 µM
[7]
  TGI: > 100 µM
[8]
  TGI: > 100 µM
[9]
  TGI: > 100 µM

## CN1CCN2CCN(C)CCN(CC1)CC2
[1]
  TGI: > 100 µM
[2]
  TGI: > 100 µM
[3]
  TGI: > 100 µM
[4]
  TGI: > 100 µM
[5]
  TGI: > 100 µM
[6]
  TGI: > 100 µM
[7]
  TGI: > 100 µM
[8]
  TGI: > 100 µM
[9]
  TGI: > 100 µM

## COC(=O)/C=C/c1cc(OC)c2c(c1)C(C(=O)OC)C(c1ccc(O)c(OC)c1)O2 (stereo not given)
[1]
  GI50: 2.42 µM and 3.37 µM and 1.57 µM
  TGI: > 56.1 µM and 36.4 µM and 32.9 µM
[2]
  TGI: > 100 µM
[3]
  GI50: 2.74 µM and 1.52 µM and 0.629 µM
  TGI: > 100 µM and > 53.7 µM and 56.6 µM
[4]
  GI50: 1.9 µM and 2.05 µM and 0.69 µM
  TGI: > 100 µM and > 69.5 µM and 42.9 µM
[5]
  TGI: > 100 µM and 31.9 µM and > 57.6 µM
[6]
  TGI: 9.76 µM and 7.8 µM and > 43.6 µM
[7]
  GI50: 4.15 µM and 4.27 µM and 9.01 µM
  TGI: > 100 µM
[8]
  GI50: 7.9 µM and 7.77 µM and 18 µM
  TGI: > 100 µM
[9]
  GI50: 1.14 µM and 1.81 µM and 0.325 µM

## Cc1nc2c(ccc3[nH]c4ccccc4c32)s1
[1]
  TGI: 41.2 µM
[2]
  TGI: > 100 µM
[3]
  TGI: 51.9 µM
[4]
  TGI: > 100 µM
[5]
  TGI: > 100 µM
[6]
  TGI: > 100 µM
[7]
  TGI: > 100 µM
[8]
  TGI: > 100 µM
[9]
  TGI: > 100 µM

## COC(=O)CC(c1ccccc1)C(C#N)(OP1(=O)OC(c2ccccc2)C(C)N1C)c1ccccc1 (stereo not given)
[1]
  TGI: > 100 µM
[2]
  TGI: > 100 µM
[3]
  TGI: > 100 µM
[4]
  TGI: > 100 µM
[5]
  TGI: > 100 µM
[6]
  TGI: > 100 µM
[7]
  TGI: > 100 µM
[8]
  TGI: > 100 µM
[9]
  TGI: 72.6 µM

## COc1ccc(C2=Nn3c(C)nnc3S/C2=C\c2ccc(-c3ccc([N+](=O)[O-])cc3)o2)cc1
[1]
  TGI: 28.3 µM
[2]
  TGI: > 100 µM
[3]
  TGI: 27.7 µM
[4]
  TGI: 88.7 µM
[5]
  TGI: > 100 µM
[6]
  TGI: 22.8 µM
[7]
  TGI: 38.7 µM
[8]
  TGI: > 100 µM
[9]
  TGI: 73.5 µM

## CCN(CC)CCCNc1c2cc(OC)ccc2nc2cccc([N+](=O)[O-])c12
[1]
  TGI: 0.359 µM
[2]
  TGI: 0.789 µM
[3]
  TGI: 0.314 µM
[4]
  TGI: 0.22 µM
[5]
  TGI: 0.618 µM
[6]
  TGI: 0.23 µM
[7]
  TGI: 2.02 µM
[8]
  TGI: 0.0779 µM
[9]
  TGI: 0.511 µM

## COC(=O)C(Cc1cc(OC)c(OC)c(OC)c1)(NC(=O)c1ccccc1)P(=O)(OC)OC (stereo not given)
[1]
  TGI: > 100 µM
[2]
  TGI: > 100 µM
[3]
  TGI: > 100 µM
[10]
  TGI: > 100 µM
[11]
  TGI: > 100 µM
[6]
  TGI: > 100 µM
[7]
  TGI: > 100 µM
[8]
  TGI: > 100 µM
[9]
  TGI: > 100 µM

## O=C(O)c1cc2sc(C(=O)O)cc2s1
[1]
  TGI: > 100 µM
[2]
  TGI: > 100 µM
[3]
  TGI: > 100 µM
[10]
  TGI: > 100 µM
[11]
  TGI: > 100 µM
[6]
  TGI: > 100 µM
[7]
  TGI: > 100 µM
[8]
  TGI: > 100 µM
[9]
  TGI: > 100 µM

## C/C(=N\Nc1nc2ccccc2[nH]1)c1ccc2ccccc2n1
[1]
  TGI: 9.25 µM
[2]
  TGI: 38.4 µM
[3]
  TGI: 35.2 µM
[4]
  TGI: 13.8 µM
[5]
  TGI: 3.74 µM
[6]
  TGI: 13.5 µM
[7]
  TGI: 15.9 µM
[8]
  TGI: 10.8 µM
[9]
  TGI: 5.04 µM

## CSc1nc(NC2OC(CO)C(O)C(O)C2O)c(N)c(=O)[nH]1 (stereo not given)
[1]
  TGI: > 100 µM
[2]
  TGI: > 100 µM
[3]
  TGI: > 100 µM
[4]
  TGI: > 100 µM
[10]
  TGI: > 100 µM
[11]
  TGI: > 100 µM
[6]
  TGI: > 100 µM
[7]
  TGI: > 100 µM
[8]
  TGI: > 100 µM
[9]
  TGI: > 100 µM

## [B]C(=O)NC(CC(C)C)C(=O)NC1c2ccsc2C(=O)C1O (stereo not given) (tested in a mixture with another compound)
[1]
  TGI: > 100 µM
[2]
  TGI: > 100 µM
[3]
  TGI: > 100 µM
[4]
  TGI: > 100 µM
[5]
  TGI: > 100 µM
[6]
  TGI: > 100 µM
[7]
  TGI: > 100 µM
[8]
  TGI: > 100 µM
[9]
  TGI: > 100 µM

## NC(=O)NC(=O)c1cccc(C(=O)NC(N)=O)n1
[1]
  TGI: > 100 µM
[2]
  TGI: > 100 µM
[3]
  TGI: > 100 µM
[4]
  TGI: > 100 µM
[5]
  TGI: > 100 µM
[6]
  TGI: > 100 µM
[7]
  TGI: > 100 µM
[8]
  TGI: > 100 µM
[9]
  TGI: > 100 µM

## Cc1nc2ccccc2n1Cc1ccc(NC(=S)NC2CCCCC2)cc1
[1]
  TGI: > 89.7 µM
[2]
  TGI: > 100 µM
[3]
  TGI: > 100 µM
[4]
  TGI: 72.3 µM
[5]
  TGI: > 82.3 µM
[6]
  TGI: > 100 µM
[7]
  TGI: > 100 µM
[8]
  TGI: > 100 µM
[9]
  TGI: > 100 µM

## CCN(CC)C(=O)N1CN(c2ccccc2)C2(CCN(CCCC3(c4ccc(F)cc4)OCCO3)CC2)C1=O
[1]
  TGI: 34.9 µM
[2]
  TGI: 61.5 µM
[3]
  TGI: 32.3 µM
[4]
  TGI: 19.9 µM
[5]
  TGI: > 100 µM
[6]
  TGI: 27.8 µM
[7]
  TGI: 89.7 µM
[8]
  TGI: > 100 µM
[9]
  TGI: 27.9 µM

From PubChem BioAssay (NCI)
